# Assay results as given in US4704407A, “Soluble dobutamine salts” (Eli Lilly and Company, priority 1986, dated 1987).
# Counter-ions that a name gives are not always drawn.
# Tests used:
# [1] = Storage stability of concentrate solutions; type: physicochemical; settings: at 5° C., N2 atmosphere, with sodium bisulfite, pH=3.65
# Description: In a repeat with (-) tartaric acid, 58.6 g of dobutamine hydrochloride in deaerated water were neutralized with dilute aqueous sodium hydroxide in the presence of a peroxide scavenger under N2; pH=11.09. The precipitate of dobutamine base was washed with the […] and dried. The filter cake was dissolvd in 2 l of deaerated water followed by 26.1 g of (-)-tartaric acid and 0.8 g of sodium bisulfite; pH=3.65. The solution was filtered and then stored at […], always under an N2 atmosphere. Such stored concentrate solutions are stable for 12 months or more at 5° C.
# [2] = Solubility of dobutamine salts (as dobutamine base, in water); type: physicochemical
# Method: 8.3 Millimoles of dobutamine free base and 8.7 millimoles of one of each of the following acids: glycolic, (+)-tartaric, gluconic, lactobionic and glucoheptonic, were mixed under an N2 atmosphere were an amount of 0.035 g aqueous sodium bisulfite dissolved in water for injection such that the final volume was […]; i.e., 100 mg/ml of dobutamine base. If required, the salt-forming mixture was warmed to expedite solution of dobutamine base. The solid salt can be obtained from the solution, if desired, by evaporation of the solvent.
# The solubilities of each of the dobutamine salts thus prepared was in excess of 100 mg/ml. By contrast, a saturated solution of dobutamine hydrochloride provides about 25 mg/ml of dobutamine.
# Furthermore, with any of the acids named, stereoisomers thereof can also be used rather than a racemate. Dobutamine content of all solutions is monitored with UV.
# [3] = cited from earlier work
# [4] = U.S. Pat. No. 3,932,461 (Suh I)
# [5] = ascribed to dobutamine, U.S. Pat. No. 3,932,461
structure (smiles),measurement,setting,value
CC(CCc1ccc(O)cc1)NCCc1ccc(O)c(O)c1 (stereo not drawn) [dobutamine salt of (-)-tartaric acid],stability of stored concentrate solutions,[1],≥ 12 months
CC(CCc1ccc(O)cc1)NCCc1ccc(O)c(O)c1 (centres unmarked) [dobutamine hydrochloride],solubility,"[2]; water, saturated solution, mg/ml of dobutamine, read-out: dobutamine provided by a saturated solution",~25 mg/mL
"CC(CCc1ccc2c(c1)OCO2)NCCc1ccc(O)c(O)c1 (centres unmarked) [N-[3-(3,4-methylenedioxyphenyl)-1-methylpropyl 2-(3,4-dihydroxyphenyl)ethylamine]",cardiotonic properties,[3]; [4],cardiotonic properties similar to those ascribed to dobutamine
same,depressant or analgesic activity,[3]; [4],depressants or analgesics
CC(CCc1ccc(O)cc1)NCCc1ccc(O)c(O)c1 (racemic) [dobutamine salt of (±)-tartaric acid],solubility of the dobutamine salt (in words),[2]; salts with further tartaric acid isomers,high solubility
"CC(CCc1ccc(O)cc1)NCCc1ccc(O)c(O)c1 (racemic) [dobutamine, (±)-N-[3-(4-hydroxyphenyl)-1-methylpropyl]2-(3,4-dihydroxyphenyl) ethylamine]",contractile force,[3]; [5],increased contractile force
same,effect on blood pressure or heart rate,[3]; [5],without significant effect on blood pressure or heart rate
same,solubility in water (in words),[2]; dobutamine base separates from the alkaline medium,water-insoluble
